The source of these data is US4088772A, “Methanodibenzocycloheptapyrroles” (E. I. Du Pont de Nemours and Company, priority 1975, dated 1978).

The term LD50 denotes the dose at which mortality reaches 50%. The low end stands for a more toxic substance, the high end for a less toxic substance. Broadly, the ED50 is the dose at which the effect has come halfway, by size or by number of responders.

Where a name gives a salt, the structure may show the parent alone. Read-outs that look alike come from different tables or passages of the source.

A short description of one data set: in vivo. The conditions noted are these: mouse, in vivo, po.
The test system of the next data set is female white mice. The data set is described as follows: animal or person. The conditions noted are these: oral, mice; for ED50: Mus musculus, po.
Data set [1] deals with phenylquinone-induced writhing. The data set is described as follows: Phenylquinone writhing test (analgesia). The conditions noted are these: for ED50: Mus musculus. In kind it is in vivo, mouse (Carworth CF1 S female). From the text: This mouse test is predictive of analgesic response in humans. [E. Siegmund, R. Cadmus and G. Lee, Proc. Soc.
ED50 values were obtained graphically from the data.
(An intraperitoneal irritant provokes the stretching counted in writhing tests.)

[2] abbreviates: read-out: Catatonia ED50, Table III.
The mark [3] stands for this setting: read-out: Exploratory Loss Visual ED50, Table III.
Setting [4] is: read-out: Muscle Tone ED50, Table III.
Setting [5] is: read-out: Ptosis ED50, Table III.
[6] abbreviates: read-out: Reflexes Grip ED50, Table III.
The mark [7] stands for this setting: read-out: Reflexes Lift ED50, Table III.
Where [8] appears, read: read-out: Reflexes Pinna ED50, Table III.
The mark [9] stands for this setting: read-out: Reflexes Grip ED50, Table 1.
[10] abbreviates: read-out: Catatonia ED50, Table 1.
The mark [11] stands for this setting: read-out: Exploratory Loss Visual ED50, Table 1.
The mark [12] stands for this setting: read-out: Muscle Tone ED50, Table 1.
The mark [13] stands for this setting: read-out: Reflexes Lift ED50, Table 1.
The mark [14] stands for this setting: read-out: Reflexes Pinna ED50, Table 1.

Compound `OCc1ccc2c(c1)[C@]13C[C@H]2c2ccccc2[C@H]1CN(CC1CCCC1)C3` (relative stereo) [Example 86, 2-Cyclopentylmethyl-2,3,8,12b-tetrahydro-1H-3a,8-methanodibenzo[3,4:6,7]cyclohepta[1,2-c]pyrrole-5-methanol Hydrochloride] gave an LD50 at 24 h in “in vivo” of more than 324 mg/kg. For the same compound, the ED50 with female white mice (setting [2]) was 60 mg/kg; in the data set with female white mice (setting [3]), 12 mg/kg; in the data set with female white mice (setting [4]), 60 mg/kg; in the data set with female white mice (setting [5]), 7 mg/kg; with female white mice (setting [6]), 200 mg/kg; with female white mice (setting [7]), 36 mg/kg. The ED50 in the data set with female white mice (setting [8]) was 20 mg/kg; in data set [1] (po, Table III, mice), 26 mg/kg.

In “in vivo”, `FCc1ccc2c(c1)[C@]13C[C@H]2c2ccccc2[C@H]1CN(CC1CCCC1)C3` (relative stereo) [Example 87, 5-Fluoromethyl-2-cyclopentylmethyl-2,3,8,12b-tetrahydro-1H-3a,8-methanodibenzo[3,4:6,7]cyclohepta[1,2-c]-pyrrole Hydrochloride] gave an LD50 at 24 h of more than 324 mg/kg. Moreover, the ED50 in the data set on female white mice (setting [2]) was 36 mg/kg; in the data set with female white mice (setting [3]), 12 mg/kg; in the data set with female white mice (setting [4]), 36 mg/kg; in the data set on female white mice (setting [5]), 7 mg/kg; in the data set with female white mice (setting [6]) it was 300 mg/kg; in the data set with female white mice (setting [7]) it was 36 mg/kg. In addition, the ED50 in the data set with female white mice (setting [8]) was found to be 36 mg/kg; in data set [1] (po, Table III, mice), 78 mg/kg.

Turning to `CNS(=O)(=O)c1ccc2c(c1)[C@]13C[C@H]2c2ccccc2[C@H]1CN(CC1CCCC1)C3` (relative stereo) [Example 88, 2-Cyclopentylmethyl-2,3,8,12b-tetrahydro-1H-3a,8-methanodibenzo[3,4:6,7]cyclohepta[1,2-c]pyrrole-5-N-methylsulfonamide Hydrochloride], the LD50 at 24 h in the data set “in vivo” was more than 324 mg/kg. Besides, the median effective dose (ED50) in the data set with female white mice (setting [2]) is 300 mg/kg; in the data set on female white mice (setting [3]) it was 20 mg/kg; in the data set on female white mice (setting [4]), 200 mg/kg; in the data set on female white mice (setting [5]), 36 mg/kg; with female white mice (setting [6]), more than 324 mg/kg; in the data set with female white mice (setting [7]), 200 mg/kg. Besides, the median effective dose (ED50) in the data set with female white mice (setting [8]) is 100 mg/kg; in data set [1] (po, Table III, mice), less than 130 mg/kg.

In the data set “in vivo”, `c1ccc2c(c1)C1CC3(CN(CC4CCCC4)CC23)c2ccccc21` (single isomer, unassigned; (-)) [(-)-Cyclopentylmethyl, 2-Cyclopentylmethyl-2,3,8,12b-tetrahydro-trans-1H,-3a,8-methanodibenzo[3,4:6,7]cyclohepta[1,2-c]pyrrole] yielded a median effective dose (ED50) of more than 324 mg/kg and an LD50 at 24 h of more than 324 mg/kg. Moreover, the ED50 in the data set with female white mice (setting [9]) came to 200 mg/kg. In addition, in the data set with female white mice (Table 1), the “Catatonia ED50” value is 7 mg/kg, the “Exploratory Loss Visual ED50” value was less than 4 mg/kg, the “Muscle Tone ED50” value is less than 4 mg/kg and the “Ptosis ED50” value is recorded as less than 4 mg/kg. In addition, in the data set with female white mice (Table 1), the “Reflexes Lift ED50” value was determined as 4 mg/kg and the “Reflexes Pinna ED50” value amounted to 4 mg/kg. Further, the “Phenylquinone Analgesia ED50” value in data set [1] (Table 1, oral, mice) amounted to 1.2 mg/kg.

Turning to `[O-][N+]1(CC2CCCC2)CC2c3ccccc3C3CC2(C1)c1ccccc13` (stereo not drawn) [Cyclopentylmethyl-N-oxide, N-Oxide of 2-cyclopentylmethyl-2,3,8,12b-tetrahydro-1H-3a,8-methanodibenzo[3,4:6,7]cyclohepta[1,2-c]-pyrrole], the median effective dose (ED50) is more than 324 mg/kg in the data set “in vivo”; 36 mg/kg in the data set with female white mice (setting [10]); 12 mg/kg with female white mice (setting [11]); 12 mg/kg with female white mice (setting [12]); not above 4 mg/kg in the data set on female white mice (read-out: Ptosis ED50, Table 1); more than 324 mg/kg in the data set with female white mice (setting [9]). Further, the ED50 with female white mice (setting [13]) is 20 mg/kg; with female white mice (setting [14]), 7 mg/kg; in data set [1] (po, Table 1, mice) it was 24 mg/kg. In the data set “in vivo”, this compound returned an LD50 at 24 h of more than 324 mg/kg.

In turn, `CN1CC2c3ccccc3C3CC2(C1)c1ccccc13` (stereo not drawn) [Example 1, 2-Methyl-2,3,8,12b-tetrahydro-1H-3a,8-methanodibenzo[3,4:6,7]cyclohepta[1,2-c]pyrrole] displayed an LD50 at 24 h in the data set “in vivo” of 150 mg/kg. Also, the ED50 came out at 30 mg/kg in the data set “in vivo” (Tremors ED50, Table 1, mice); 30 mg/kg in the data set with female white mice (setting [10]); 50 mg/kg with female white mice (setting [11]); 100 mg/kg in the data set with female white mice (setting [12]); 50 mg/kg in the data set on female white mice (read-out: Ptosis ED50, Table 1); 150 mg/kg in the data set on female white mice (setting [9]). In addition, the ED50 came out at 30 mg/kg in the data set on female white mice (setting [13]); 30 mg/kg in the data set on female white mice (setting [14]); 5.1 mg/kg in data set [1] (Table 1, oral, mice).
